# Test results taken from patent publication US6737383B1, “Herbicidal oxadiazolidines” (priority 1999, dated 2004).
# Legend:
# [1] = system: velvetleaf; experiment: Test B pre/postemergence velvetleaf; format: in vivo, Abutilon theophrasti; conditions: for Plant response rating, Velvetleaf: Postemergence
# Outline: (§1)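 Response is a visual 0-to-10 score relative to untreated plants, where 0 means no effect and 10 means complete control, taken twelve to sixteen days after application. Treatments went onto soil at planting and onto foliage of 1- to 4-leaf plants, using a surfactant-containing non-phytotoxic solvent.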
# [2] = system: rape; experiment: Test B pre/postemergence rape; format: in vivo, Brassica napus
# Outline: as §1
# [3] = system: giant foxtail; experiment: Test B pre/postemergence giant foxtail; format: in vivo, Setaria faberii
# Outline: as §1
# [4] = system: wild oat; experiment: Test B pre/postemergence wild oat; format: in vivo, Avena fatua; conditions: for Plant response rating, Wild oats: Postemergence
# Outline: as §1
# [5] = system: purple nutsedge; experiment: Test B pre/postemergence purple nutsedge; format: in vivo, Cyperus rotundus
# Outline: as §1
# [6] = system: crabgrass; experiment: Test B pre/postemergence crabgrass; format: in vivo, Digitaria sanguinalis
# Outline: as §1
# [7] = system: wheat; experiment: Test B pre/postemergence wheat; format: in vivo, Triticum aestivum; conditions: for Plant response rating, Wheat: Postemergence
# Outline: as §1
# [8] = system: sugar beet; experiment: Test B pre/postemergence sugar beet; format: in vivo, Beta vulgaris; conditions: for Plant response rating, Sugarbeets: Postemergence
# Outline: as §1
# [9] = system: corn; experiment: Test B pre/postemergence corn; format: in vivo, Zea mays
# Outline: as §1
# [10] = system: pigweed; experiment: Test B pre/postemergence pigweed; format: in vivo, Amaranthus retroflexus; conditions: for Plant response rating, Redroot pigweed: Postemergence
# Outline: as §1
# [11] = system: soybean; experiment: Test B pre/postemergence soybean; format: in vivo, Glycine max; conditions: for Plant response rating, Soybean: Postemergence
# Outline: as §1
# [12] = system: morningglory; experiment: Test B pre/postemergence morningglory; format: in vivo, Ipomoea hederacea
# Outline: as §1
# [13] = system: surinam grass; experiment: Test B pre/postemergence surinam grass; format: in vivo, Brachiaria decumbens
# Outline: as §1
# [14] = system: cocklebur; experiment: Test B pre/postemergence cocklebur; format: in vivo, Xanthium strumarium
# Outline: as §1
# [15] = system: bedstraw; experiment: Test B pre/postemergence bedstraw; format: in vivo, Galium aparine; conditions: for Plant response rating, Bedstraw: Postemergence
# Outline: as §1
# [16] = system: blackgrass; experiment: Test B pre/postemergence blackgrass; format: in vivo, Alopecurus myosuroides
# Outline: as §1
# [17] = Rate 500 g/ha, scale of 0 to 10 where 0 is no effect and 10 is complete control
# [18] = Preemergence, Rate 62 g/ha, scale 0 to 10 (0 no effect, 10 complete control)
# [19] = Preemergence, Rate 125 g/ha, scale 0 to 10, 0 is no effect, 10 is complete control
# [20] = Preemergence, Rate 500 g/ha, scale of 0 to 10 where 0 is no effect and 10 is complete control
# [21] = Rate 250 g/ha, scale of 0 to 10 where 0 is no effect and 10 is complete control
# [22] = Postemergence, Rate 62 g/ha, scale of 0 to 10, 0 is no effect, 10 is complete control
# [23] = Postemergence, Rate 125 g/ha, scale 0 to 10, 0 is no effect, 10 is complete control
# [24] = Postemergence, Rate 500 g/ha, scale of 0 to 10 where 0 is no effect and 10 is complete control
# [25] = Rate 250 g/ha, Postemergence, scale of 0 to 10 where 0 is no effect and 10 is complete control
structure (smiles),measurement,setting,value
CC(=O)C(C)n1c(=O)on(C(=O)N(c2ccccc2)C(C)C)c1=O (centres unmarked) [Compound 576],"Plant response rating, Velvetleaf",[1]; [17],0
same,Velvetleaf plant response rating,[1]; [18],0
same,Velvetleaf plant response rating,[1]; [19],0
same,Velvetleaf plant response rating (0 to 10 scale),"[1]; Preemergence, Rate 250 g/ha",0
same,Velvetleaf plant response rating,[1]; [20],3
same,"Plant response rating, Velvetleaf",[1]; [21],0
same,Rape plant response rating,[2]; [22],0
same,Rape plant response rating,[2]; [23],0
same,"Plant response rating, Rape",[2]; [24],0
same,Rape plant response rating,[2]; [18],0
same,Rape plant response rating,[2]; [19],0
same,Rape plant response rating (0 to 10 scale),"[2]; Preemergence, Rate 250 g/ha",2
same,Rape plant response rating,[2]; [20],7
same,"Plant response rating, Rape",[2]; [25],0
same,Giant foxtail plant response rating,[3]; [22],2
same,Giant foxtail plant response rating,[3]; [23],3
same,"Plant response rating, Giant foxtail",[3]; [24],8
same,Giant foxtail plant response rating,[3]; [18],2
same,Giant foxtail plant response rating,[3]; [19],4
same,Giant foxtail plant response rating (0 to 10 scale),"[3]; Preemergence, Rate 250 g/ha",9
same,Giant foxtail plant response rating,[3]; [20],9
same,"Plant response rating, Giant foxtail",[3]; [25],7
same,"Plant response rating, Wild oats",[4]; [17],0
same,Wild oats plant response rating,[4]; [18],0
same,Wild oats plant response rating,[4]; [19],0
same,Wild oats plant response rating (0 to 10 scale),"[4]; Preemergence, Rate 250 g/ha",3
same,Wild oats plant response rating,[4]; [20],8
same,"Plant response rating, Wild oats",[4]; [21],0
same,Nutsedge plant response rating,[5]; [22],0
same,Nutsedge plant response rating,[5]; [23],0
same,Nutsedge plant response rating,[5]; [18],0
same,Nutsedge plant response rating,[5]; [19],0
same,Nutsedge plant response rating (0 to 10 scale),"[5]; Preemergence, Rate 250 g/ha",0
same,Nutsedge plant response rating,[5]; [20],8
same,"Plant response rating, Nutsedge",[5]; [25],0
same,Crabgrass plant response rating,[6]; [22],2
same,Crabgrass plant response rating,[6]; [23],3
same,"Plant response rating, Crabgrass",[6]; [24],9
same,Crabgrass plant response rating,[6]; [18],0
same,Crabgrass plant response rating,[6]; [19],4
same,Crabgrass plant response rating (0 to 10 scale),"[6]; Preemergence, Rate 250 g/ha",9
same,Crabgrass plant response rating,[6]; [20],9
same,"Plant response rating, Crabgrass",[6]; [25],9
same,"Plant response rating, Wheat",[7]; [17],0
same,Wheat plant response rating,[7]; [18],0
same,Wheat plant response rating,[7]; [19],6
same,Wheat plant response rating (0 to 10 scale),"[7]; Preemergence, Rate 250 g/ha",8
same,Wheat plant response rating,[7]; [20],8
same,"Plant response rating, Wheat",[7]; [21],0
same,"Plant response rating, Sugarbeets",[8]; [17],0
same,Sugarbeets plant response rating,[8]; [18],0
same,Sugarbeets plant response rating,[8]; [19],0
same,Sugarbeets plant response rating (0 to 10 scale),"[8]; Preemergence, Rate 250 g/ha",4
same,Sugarbeets plant response rating,[8]; [20],6
same,"Plant response rating, Sugarbeets",[8]; [21],0
same,Corn plant response rating,[9]; [22],0
same,Corn plant response rating,[9]; [23],0
same,"Plant response rating, Corn",[9]; [24],4
same,Corn plant response rating,[9]; [18],0
same,Corn plant response rating,[9]; [19],0
same,Corn plant response rating (0 to 10 scale),"[9]; Preemergence, Rate 250 g/ha",0
same,Corn plant response rating,[9]; [20],2
same,"Plant response rating, Corn",[9]; [25],2
same,"Plant response rating, Redroot pigweed",[10]; [17],4
same,Redroot pigweed plant response rating,[10]; [18],0
same,Redroot pigweed plant response rating,[10]; [19],9
same,Redroot pigweed plant response rating (0 to 10 scale),"[10]; Preemergence, Rate 250 g/ha",10
same,Redroot pigweed plant response rating,[10]; [20],10
same,"Plant response rating, Redroot pigweed",[10]; [21],0
same,"Plant response rating, Soybean",[11]; [17],4
same,Soybean plant response rating,[11]; [18],0
same,Soybean plant response rating,[11]; [19],0
same,Soybean plant response rating (0 to 10 scale),"[11]; Preemergence, Rate 250 g/ha",0
same,Soybean plant response rating,[11]; [20],0
same,"Plant response rating, Soybean",[11]; [21],3
same,Morningglory plant response rating,[12]; [22],2
same,Morningglory plant response rating,[12]; [23],2
same,"Plant response rating, Morningglory",[12]; [24],4
same,Morningglory plant response rating,[12]; [18],0
same,Morningglory plant response rating,[12]; [19],0
same,Morningglory plant response rating (0 to 10 scale),"[12]; Preemergence, Rate 250 g/ha",0
same,Morningglory plant response rating,[12]; [20],0
same,"Plant response rating, Morningglory",[12]; [25],4
same,B. signalgrass plant response rating,[13]; [22],0
same,B. signalgrass plant response rating,[13]; [23],0
same,"Plant response rating, B. signalgrass",[13]; [24],2
same,B. signalgrass plant response rating,[13]; [18],0
same,B. signalgrass plant response rating,[13]; [19],3
same,"B. signalgrass plant response rating (0 to 10 scale, 0 is no effect, 10 is complete control)","[13]; Preemergence, Rate 250 g/ha",6
same,B. signalgrass plant response rating,[13]; [20],9
same,"Plant response rating, B. signalgrass",[13]; [25],0
same,Cocklebur plant response rating,[14]; [22],0
same,Cocklebur plant response rating,[14]; [23],0
same,"Plant response rating, Cocklebur",[14]; [24],0
same,Cocklebur plant response rating,[14]; [18],0
same,Cocklebur plant response rating,[14]; [19],0
same,Cocklebur plant response rating (0 to 10 scale),"[14]; Preemergence, Rate 250 g/ha",0
same,Cocklebur plant response rating,[14]; [20],0
same,"Plant response rating, Cocklebur",[14]; [25],0
same,"Plant response rating, Bedstraw",[15]; [17],9
same,Bedstraw plant response rating,[15]; [18],0
same,Bedstraw plant response rating,[15]; [19],0
same,Bedstraw plant response rating (0 to 10 scale),"[15]; Preemergence, Rate 250 g/ha",0
same,Bedstraw plant response rating,[15]; [20],0
same,"Plant response rating, Bedstraw",[15]; [21],5
same,Blackgrass plant response rating,[16]; [22],0
same,Blackgrass plant response rating,[16]; [23],0
same,"Plant response rating, Blackgrass",[16]; [24],7
same,Blackgrass plant response rating,[16]; [18],0
same,Blackgrass plant response rating,[16]; [19],3
same,Blackgrass plant response rating (0 to 10 scale),"[16]; Preemergence, Rate 250 g/ha",6
same,Blackgrass plant response rating,[16]; [20],9
same,"Plant response rating, Blackgrass",[16]; [25],2
